This is an account of results in patent publication US20100004234A1, “SPECIFIC KINASE INHIBITORS” (Kosan Biosciences Incorporated, priority 2004, published 2010).

Broadly, the IC50 is the concentration needed to halve the response being measured. In general, GI50 refers to the concentration at which growth is held to half of that of the control. A low value points to greater sensitivity of the cells.

The subject of test [1] is COLO829 (Human melanoma, B-Raf V599E). The experiment in a line: Cell proliferation assay (Cell Titer Glo). The format is cell-based. As to the method:
(§1) In one illustrative method, cells are treated with various concentrations of the inhibitor in 96 well plates, incubated at 37° C./5% CO2 for three days, and analyzed using the Cell Titer Glo kit (Promega).
(§2) COLO829 is a human melanoma cell line. HT29 is a human colon cancer cell line. Both cell lines have a V600E B-Raf mutation. SKOV3 is an ovarian cancer cell line having wild-type B-Raf. EKR2 (extra-cellular signal regulated kinase 2) is a kinase in the Ras/B-Raf MAP kinase cascade pathway.
In general terms: Cellular ATP, detected with luciferase, serves as a proxy for viable cell number.

Test [2] concerns HT29 (Human colon, B-Raf V599E). The test is described as follows: Cell proliferation assay (Cell Titer Glo). The format is cell-based. As to the method: as §1, §2
In test [3] the test system is A375 (Human melanoma, B-Raf V599E). The test is described as follows: Cell proliferation assay (Cell Titer Glo). The format is cell-based. How it is done:
as §1

Test [4] deals with A549 (NSCLC, B-Raf wild-type). The experiment in a line: Cell proliferation assay (Cell Titer Glo). The format is cell-based. As to the method: as §1
Test [5] has as its system DU4475 (Human breast, B-Raf V599E). The experiment in a line: Cell proliferation assay (Cell Titer Glo). The format is cell-based. How it is done:
as §1

Test [6] has as its system WM266-4 (Human melanoma, B-Raf V599D). The test is described as follows: Cell proliferation assay (Cell Titer Glo). The format is cell-based. As to the method: as §1
The target of test [7] is T1, MEK1 (Homo sapiens, UniProt Q02750). The test is described as follows: Time-dependent kinase inhibition kinetics (pre-incubation, [32P]ATP filter binding). The format is biochemical. How it is done:
Typically, one measures the increase in inhibition of protein kinase activity in the presence of inhibitor over time. In one method, aliquots of a “pre-incubation” reaction mixture containing enzyme and inhibitor are assayed for activity (initial velocities) over time; increased inhibition or decreased initial velocities will be observed over time as the Michael adduct forms (Walsh, C, Enzyme Reaction Mechanisms, W.H. Freeman & Co., 1979, pp 86-94). In a second method, the time dependent loss of activity is measured as “progress curves” that measure and analyze product formed (e.g. ADP) versus time (Morrison & Walsh, Adv. Enzymol Relat Areas Mol. Biol. 1988, 61, 201-301). In either case, the time dependent inactivation can be dampened by the presence of a competing substrate, in this case ATP.
MEK1 and many other protein kinases that can be targets of the compounds useful in the methods of the invention can be obtained commercially (Invitrogen; Carlsbad, Calif.) or prepared using standard molecular biology techniques. After activation by phosphorylation, they are assayed for their ability to phosphorylate a target kinase or surrogate substrate. For example, MEK1 can be assayed in a mixture containing MEK1 (30 nM) and ERK1 (2 μM), [γ-^32P]ATP (10 uM) and MgCl2 in Mops buffer pH 7.6. Phosphorylation can be measured by isolating [γ-^32P]-phosphorylated ERK1 on phosphocellulose paper, and counting radioactive product. Alternatively, a coupled enzyme system may be used in which a product of the kinase reaction, such as ADP, is measured by analysis with a secondary system that converts that product (e.g. ADP) to an easily measurable entity (e.g. NADH); often, such coupled systems can be measured by convenient spectrophotometry assays.
To measure time-dependent inhibition using the “pre-incubation method”, MEK1 (or other kinase) is incubated with varying amounts of the lactone inhibitor; […]. Aliquots are removed at various times, added to a solution containing substrates [γ-^32P]ATP, ERK1 (or other substrate), and the other components of the reaction, and initial rates are determined as a measure of remaining enzyme activity.
For covalent inhibitors, plots of log (activity) versus time provide apparent first-order rate constants (kobsd) of enzyme activity loss. If these assays are performed at varying concentrations of inhibitor, a series of first-order plots is obtained and kobsd obtained at each inhibitor concentration. To measure time-dependent inhibition using the “progress-curve method” (see references cited above and Kuzmic et al., Methods Enzymol 2004; 383: 366-81), ERK (or other kinase) is treated with varying amounts of the lactone inhibitor, and the formation of ADP is measured continuously by a coupled assay. […] Such molecules may be competitive inhibitors but should not show time-dependent inactivation.
Those of skill in the art will recognize that within the set of compounds useful in the methods of the invention, significant variability in specificity can be achieved, allowing one to identify optimal compounds for different applications. Inhibition progress curve analysis was performed using continuous, colorimetric, or fluorimetric assays. All experiments were done at 1 mM ATP, with the exception of KDR (at 5 mM ATP).
(§3) MEK1 assays were performed using pre-incubation experiments with radioactive [^32P]ATP and filter binding of product. All other kinases were analyzed using progress curve analysis from a continuous spectrophotometric assay.

In test [8] the target is ERK2 (UniProt P28482). The format is biochemical. More on the design: Ki; other: ERK2; 1 mM ATP; kinact; T1/2; kinact/Ki; "the target Cys 172 residue. As to conditions: ERK2. How it is done: (§4) In either case, the time dependent inactivation can be dampened by the presence of a competing substrate, in this case ATP.
(§5) For covalent inhibitors, plots of log (activity) versus time provide apparent first-order rate constants (kobsd) of enzyme activity loss. If these assays are performed at varying concentrations of inhibitor, a series of first-order plots is obtained and kobsd obtained at each inhibitor concentration. […] Such molecules may be competitive inhibitors but should not show time-dependent inactivation.
(§6) Inhibition progress curve analysis was performed using continuous, colorimetric, or fluorimetric assays. All experiments were done at 1 mM ATP, with the exception of KDR (at 5 mM ATP).
as §3

Test [9] addresses rat MEK1 (Rattus norvegicus, UniProt Q01986). As to conditions: cited from earlier work.
Test [10] relates to EOL-1 (Human leukemia FLP1L1-PDGFRA). The experiment in a line: Cell proliferation assay (Cell Titer Glo). The note with it: Homo sapiens, EOL1, read-out: Kinase Inhibitor IC50. The format is cell-based. How it is done:
as §1

In test [11] the test system is MV4-11 (Human leukemia Flt3-ITD). The test is described as follows: Cell proliferation assay (Cell Titer Glo). Type of test: cell-based. The note with it: Homo sapiens, MV4-11, read-out: Kinase Inhibitor IC50. As to the method: as §1
Test [12] concerns P815 (Mouse mastocytoma, KIT D814Y). The test is described as follows: Cell proliferation assay (Cell Titer Glo). The format is cell-based. The note with it: Mus musculus. As to the method:
as §1

The test system of test [13] is SKOV3 (ovarian cancer cell line, wild-type B-Raf). The test is described as follows: Cell proliferation assay. The format is cell-based. As to conditions: Homo sapiens, SK-OV-3; Table 7; SKOV3 ovarian cancer, wild-type B-Raf; read-out: Cell Line IC50 SKOV3. How it is done: as §1, §2
Test [14] has as its target ERK2 (UniProt P28482). Type of test: biochemical. Further details: "the target Cys 172 residue. How it is done:
as §4, §5, §6, §3

Test [15] concerns the target T1, MEK1. As to conditions: cited from earlier work.
The test system of test [16] is PKA, PKC or Raf. As to conditions: cited from earlier work.
For test [17], the system named is ASZ001 (Basal cell carcinoma). The test is described as follows: Cell proliferation assay (Cell Titer Glo). The format is cell-based. As to the method:
as §1

Test [18] relates to BCCs in Ptc+/− mice. The note with it: topical; cited from earlier work.
The subject of test [19] is ERK1/2 activation in human T cells. The note with it: tested at 0.3 to 3 μM; cited from earlier work.
[20] abbreviates: HT29 (Human colon, B-Raf V599E), Tables 1 and 4, read-out: Kinase Inhibitor IC50.
Setting [21] is: A375 (Human melanoma, B-Raf V599E), Tables 1 and 4, read-out: Kinase Inhibitor IC50.
Where [22] appears, read: A549 (NSCLC, B-Raf wild-type), Tables 1 and 4, read-out: Kinase Inhibitor IC50.
The mark [23] stands for this setting: DU4475 (Human breast, B-Raf V599E), Tables 1 and 4, read-out: Kinase Inhibitor IC50.
Setting [24] is: WM266-4 (Human melanoma, B-Raf V599D), Tables 1 and 4, read-out: Kinase Inhibitor IC50.
Where [25] appears, read: COLO-829, Table 7, COLO829 human melanoma, V600E B-Raf, read-out: Cell Line IC50 COLO829.
Setting [26] is: HT-29, Table 7, HT29 human colon cancer, V600E B-Raf, read-out: Cell Line IC50 HT29.

Like-named read-outs stand apart in the source and are kept apart here.

Chain of rat MEK1 (Q01986 whole entry): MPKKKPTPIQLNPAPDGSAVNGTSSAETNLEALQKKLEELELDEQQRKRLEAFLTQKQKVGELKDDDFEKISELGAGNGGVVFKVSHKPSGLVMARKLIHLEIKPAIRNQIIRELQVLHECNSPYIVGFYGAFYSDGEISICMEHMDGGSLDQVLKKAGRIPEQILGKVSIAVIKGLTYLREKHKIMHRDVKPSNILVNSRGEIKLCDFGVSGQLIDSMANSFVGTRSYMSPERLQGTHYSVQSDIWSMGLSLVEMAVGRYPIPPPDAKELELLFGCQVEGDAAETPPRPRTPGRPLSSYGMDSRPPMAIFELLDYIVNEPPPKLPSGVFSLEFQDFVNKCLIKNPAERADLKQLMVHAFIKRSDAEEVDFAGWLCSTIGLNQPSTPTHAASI

For 5,6-Dihydrohypothemycin, the half-maximal inhibitory concentration (IC50) in [1] (COLO829 (Human melanoma, B-Raf V599E), Tables 1 and 4, read-out: Kinase Inhibitor IC50) was 3.7 µM; in test [2] (setting [20]), 15 µM; in [3] (setting [21]), above 50 µM; in test [4] (setting [22]) it was 107 µM; in test [5] (setting [23]), 46 µM; in test [6] (setting [24]) it was 15 µM. Besides, the kinact/Ki result in test [7] and in test [8] was “None” throughout. Also, the Ki in test [7] (1 mM ATP) is 3 µM; in [8] (1 mM ATP, read-out: Ki) it was 28 µM. For the same compound, the kinact result in test [7] (1 mM ATP) and in test [8] (1 mM ATP) was “None” each time.
`COc1cc(O)c2c(c1)/C=C/C[C@H](O)[C@H](O)C(=O)/C=C\C[C@H](C)OC2=O` [(5Z)-7-oxozeaneol]: the IC50 in test [9] was 0.411 µM.
For the compound `CNC(=O)c1cc(Oc2ccc(NC(=O)Nc3ccc(Cl)c(C(F)(F)F)c3)cc2)ccn1` [BAY 43-9006, Sorafenib], the 50% growth inhibitory concentration (GI50) in test [1] (Homo sapiens, COLO-829) was found to be 6 µM; in test [12] (P815) it was 0.31 µM. Also, the IC50 amounted to 6 µM in test [1] (Homo sapiens, COLO-829, read-out: Kinase Inhibitor IC50); 4.7 µM in test [2] (Homo sapiens, HT-29, read-out: Kinase Inhibitor IC50); 4.3 µM in test [3] (Homo sapiens, A-375, read-out: Kinase Inhibitor IC50); 5.5 µM in test [4] (Homo sapiens, A549, read-out: Kinase Inhibitor IC50); 3.6 µM in test [5] (Homo sapiens, DU-4475, read-out: Kinase Inhibitor IC50); 0.00023 µM in test [10]. Also, the IC50 worked out at 0.0023 µM in test [11]; 0.31 µM in [12] (P815, read-out: Kinase Inhibitor IC50); 5.4 µM in test [6] (Homo sapiens, WM 266-4, read-out: Kinase Inhibitor IC50).
Turning to `C[C@H]1C/C=C\C(=O)[C@@H](O)[C@@H](O)C[C@H]2O[C@@H]2c2cc(O)cc(O)c2C(=O)O1` [Compound II, 4-O-desmethylhypothemycin], the IC50 in [1] (setting [25]) stood at 0.038 µM; in test [2] (setting [26]), 0.1 µM; in test [13], 1.8 µM. Moreover, the “ERK2 Inhibition kinact.” value in test [14] is 3.3 ± 0.4 × 10^−3 sec^−1. Further, the Ki in test [14] (Table 7; read-out: ERK2 Inhibition Ki) is 2.2 ± 0.4 µM.
With `COc1cc(O)c2c(c1)CCC[C@H](O)[C@H](O)C(=O)/C=C\C[C@H](C)OC2=O` [L-783,277], the “reduction of the IC50 value for MEK1 by pre-incubation” value in test [15] (60 min. pre-incubation) is given as 10 fold. The concentration for half-maximal inhibition (IC50) in [15] (MEK1) was 0.004 µM. Also, the “inhibition of PKA, PKC or Raf” value in [16] was “not”.
For the compound `COc1cccc(-c2cc(=O)c3ccccc3o2)c1N` [PD 98059], the half-maximal inhibitory concentration (IC50) in test [2] (setting [20]) came to 5.5 µM; in test [3] (setting [21]), 43 µM; in test [4] (setting [22]), 48 µM; in test [5] (setting [23]), 56 µM; in [6] (setting [24]), 21 µM.
`CCOC(=O)c1ccc(C#Cc2ccc3c(c2)C(C)(C)CCS3)nc1` [Tazarotene]: the 50% inhibitory concentration (IC50) was 10 µM in test [17] (ASZ001 (Basal cell carcinoma), read-out: Kinase Inhibitor IC50) and around 10 µM in test [17] (BCC cell line ASZ001 in culture, read-out: IC50). Besides, the “inhibition of development of BCCs” value in test [18] is given as above 85%.
In the case of `C[C@H]1C/C=C\C(=O)[C@@H](O)[C@@H](O)C[C@H]2O[C@@H]2c2cc(OCC3CCCN(C)C3)cc(O)c2C(=O)O1` (stereo partly shown) [V], the half-maximal inhibitory concentration (IC50) in test [1] (setting [25]) worked out at 0.079 µM; in test [2] (setting [26]) it was 0.6 µM; in test [13], 15 µM. In addition, the “ERK2 Inhibition kinact.” value in test [14] (Table 7) is given as 1 ± 0.1 × 10^−3 sec^−1. In addition, the Ki in test [14] (read-out: ERK2 Inhibition Ki; Table 7) was found to be 0.94 ± 0.58 µM.
Consider `C[C@H]1CCCC(=O)CCC/C=C/c2cc(O)cc(O)c2C(=O)O1` [zearalenone], for which the “inhibition of the activation of ERK1/2” value in test [19] was “not”.
